Measured values published in patent US20230226048A1, “NEW USE OF RABEXIMOD” (Cyxone AB, priority 2020, published 2023).

Legend:
IL-6 = assay: Phase IIa clinical trial in rheumatoid arthritis patients, IL-6 assessment (PK/PD population); format: in vivo, human; conditions: RA patients
Procedure: In a phase IIa clinical trial, a total of 225 patients diagnosed with active rheumatoid arthritis were randomized to receive one of the following treatments: • 6.25 mg of Rabeximod (daily) • 15 mg of Rabeximod (daily) • 37.5 mg of Rabeximod (daily) • Placebo
Study drug was provided in the form of a capsule comprising rabeximod in the form of a (micronized) powder. Over 200 patients completed the study.
The primary aim of the study was to evaluate the safety and efficacy of
Rabeximod treatment in RA patients. The study also involved Pharmacokinetic and Pharmacodynamic assessments in a subgroup (PK/PD Population) of 36 patients. This included assessment of changes in hsCRP, TNF-α, IL-6, COMP and anti-CCP.

[1] = test system: human peripheral blood mononuclear cells (PBMC); assay: LPS-stimulated cytokine/chemokine release from human PBMC in vitro (multiplex, Luminex); format: cell-based; conditions: PBMC from 7 donors
Procedure: The effect of Rabeximod on the release of GM-CSF, IL-113, IL-6, IL-8, TNF-α, MCP-1, MIP-1a, MIP-1β and RANTES from human peripheral blood mononuclear cells (PBMC) in vitro was evaluated. Rabeximod was tested at two concentrations (1.25 μg/ml and 12.5 μg/ml) on PBMC's isolated from 7 donors. Human PBMCs were isolated from whole blood using a Ficoll gradient. Cells ([…]) were then plated in a volume of 0.5 ml (0.5 ml of vehicle control (1% methanol in RPMI 1640 media) or rabeximod resuspended in methanol and diluted to a concentration of […] media was added). After incubation (1 h 37° C.) with LPS (0.1 mg/ml), cells were further incubated for 18-20 h before supernatant was removed for analysis of cytokine production using cytokine multiplex assays (Biosource, Nivelles, Belgium), accord-ing to the manufacturer's instructions. Data were collected using a Luminex 100 (Luminex Corporation, Austin, Tex., USA). All samples were analyzed in duplicates and a mean value for each sample was calculated.

[2] = test system: TLR2 stimulated macrophages; assay: TNF-α production by thioglycolate-recruited peritoneal macrophages after LPS or TLR2 stimuli (ELISA); format: cell-based, mouse; conditions: 12.5 ug/ml, added 0 h to +3 h after stimulus; stronger effect if administered early
Procedure: The aim was to investigate whether, after stimulation, Rabeximod has the ability to decrease production of pro-inflammatory cytokines by macrophages isolated from the peritoneal cavity after thioglycolate recruitment. B10.Q mice with/without expression of functional TLR4 matched according to sex and age were used as donors of peritoneal macrophages. Mice were injected on day −5 with sterilized 3% Thioglycolate intraperitoneally. On day 0 the peritoneal cavity was washed with ice cold PBS to collect recruited cells. The cells were counted and added to plates at a final concentration of 200 000 cells/well in medium. Rabeximod diluted in a minimal amount DMSO and then DMEM to final concentration (12.5 ug/ml) was added simultaneously (h 0) or at time points+0.5 h, +1 h or +3 hours after LPS or TLR2 stimuli (Lipomannan). Cells were incubated for 24 hours before the whole plate was frozen. TNF-α ELISA was performed after one week using antibodies from e-biosciences and detected by europium. Mice were injected on […] (1 ml) intraperitoneally. […] TNFα production was determined using a ready-SET-go! […]

[3] = test system: mixed lymphocytes reaction (MLR) of human donors; assay: Mixed lymphocytes reaction (MLR) of human donors, 3[H]-thymidine incorporation; format: cell-based
Procedure: Peripheral blood mononuclear cells (PBMCs) were prepared and modified for use as stimulator cells through γ-irradiation, or for use as responder cells. Rabeximod was then added to a responder and […] cell mix at various concentrations (of 10^−5, 10^−6, 10^−7 and 10^−8 M) before the cells were incubated. In the test, responder cells should proliferate more in the presence than in the absence of stimulator cells.
Normal PBMCs were obtained from healthy volunteers at the blood bank (Shiba medical center, Tel-Hashomer). Blood donations tested negative to HBSAg, HIV, HCV, ALT, HTLV and TPHA. Twelve donors were obtained in 3 sessions following review by the Committee for Ethical Conduct in the Care and Use of Laboratory Animals of the Hebrew University, Jerusalem, the Institutional Animal Care and Use Committee (IACUC) responsible for approving Harlan Biotech (Israel) animal usage application in compliance with its respective registration under National Institues of Health (NIH) accreditation no. OPR-A01-5011. Peripheral blood mononuclear cells (PBMCs) were freshly separated from heparinized full blood by Ficoll-Hypaque (IsoPrep, Robbins Scientific) density gradient centrifugation. After two washes with PBS, cells were diluted in PBMCs medium and counted. Since MLR was conducted in two-ways format, each donor was utilized as stimulator and as responder.
In each session, 0.87*10^6/ml PBMCs cells from each donor were mixed and then γ-irradiated with 4000 rad (about 6.25 minutes). Cells were diluted in PBMCs medium to give the highest concentration). Further dilutions in ×2-fold were done in PBMCs medium. 50*10^6 were taken from each donor to obtain a mixture of stimulators in each experiment.
Cells were resuspended in PBMCs medium at approximately 2*10^6 cells/ml and incubated in flasks for 2 hours at 5% CO2, 37° C. Adherent cells were dis-carded while non-adherent cells in the supernatant were centrifuged at 700 g for 10 minutes. To enrich for T lymphocytes, cells were resuspended in 5% PBMCs medium and loaded on nylon wool columns (Uni-Sorb, Novamed) at 8*10^7 cells/ml, according to manufacturer instructions.
Cells were seeded in 96-well round-bottom plates at the varying ratios of stimulator vs. responder cells.
^3[H]-Thymidine was added to the cell culture at 18 hrs before the end of the cultivation period (6 days). Cells were harvested and transferred to filters (unifilters GF/C) using the Packard filtermate Cell harvester. Following addition of scintillation fluid (MicroScint20™) to the filters, they were counted in Packard microplate scintillation β-counter. Results are expressed as Counting Per Minutes (CPM).

[4] = test system: wild type and TLR4 deficient mice; assay: Collagen antibody-induced arthritis (CAIA) boosted with TLR stimuli in mice, arthritis scoring; format: in vivo, mouse; conditions: for arthritis severity: 40 mg/kg subcutaneously every second day, day 5 to 15
Source text: QB mice (10-20 weeks) were generated from a (BALB/cxB10.Q) F1 cross. C57BL/10ScNJ mice (Tlr4^lps-del), hereafter called Tlr4^del, were ordered from The Jackson Laboratory (The Jackson Laboratory, Bar Harbor, Me., USA). These mice have deletion of the Tlr4 gene that results in absence of mRNA and protein and is thus defective in response to LPS stimulation. These mice were crossed together with C57BL/10.Q mice from Medical Inflammation Research, Lund university, Lund, Sweden in order to generate mice expressing major histocompatibility complex (MHC) Aq. Mice were kept and bred in a climate-controlled environment with a 12 h light/dark cycle, fed standard rodent chow and water ad libitum in the animal facility of Medical Inflammation Research, Lund University, Lund, Sweden.
Litters were genotyped for MHC using microsatellite marker D17mit230. Genotyping of Tlr4 was performed according to an earlier described method. Briefly, DNA was prepared from biopsies and primers flanking the 70 kb deletion or amplifying the wild-type sequence absent in the TLR4 deleted mice were used.
The mice were matched according to age and sex, and littermates were used in all experiments. All experiments were approved according to Malmö/Lund ethical committee license M107-07.
Male mice, older than 8 weeks, were injected intravenously on day 0 with a cocktail of four monoclonal antibodies (4 mg in a total volume of 310 μl/mouse) containing M2139, CIIC1, CIIC2 and UL1 antibodies binding to J1, C1^I, D3 and U1 epitopes of CII in order to induce CAIA. Day 5 mice were injected with LPS from Escherichia coli (Sigma-Aldrich, St Louis, Mis-souri, USA), deoxycytoylate-phosphate-deoxyguanylate (CpG) DNA (sequence 1668, MWG; Eurofins MWG, Erdersberg, Germany) or lipomannan (LM) from Mycobacterium segma-tis (InvivoGen, San Diego, Calif., USA) intraperitoneally to boost disease (35-50 μg/mouse in 1 ml phosphate-buffered saline (PBS)).
Mice were blindly scored daily to every second day until the end of the experiment. […]

T cell proliferation = assay: ConA-stimulated proliferation of lymph node cells from DA rats immunized with rat collagen II, [3H]-thymidine; format: cell-based; conditions: ConA 1.5 μg/ml, 48 h
Procedure: draining lymph nodes collected day 9 p.i. from DA rats immunized with rat collagen II (RCII) in Freund's Incomplete Adjuvant (FIA) were used to prepare individual single cell suspensions. Lymph nodes were grinded through wire mesh and cells washed 3 times in incomplete DMEM cell culture medium. Cells were counted by trypan blue exclusion and cell suspensions of 2×10^6 cells/ml in complete DMEM prepared. 4×10^5 cells per well were seeded in flat-bottomed 96-well microtiter plates. Triplicates of each individual cell suspension were incubated with 1.5 μg/ml ConA. ConA was diluted in phosphate buffered saline, D-PBS. Spontaneous proliferation was determined by measuring proliferation in cell cultures without addition of ConA. As a positive proliferation control cells were stimulated with ConA together with 10 μl of the rabeximod vehicle, 0.01 M acetic acid. Doses of rabeximod were added in 10 μl vehicle so that the final concentrations in cell cultures ranged from 50-800 ng/ml. Cell cultures were incubated at 37° C.+5% CO2 for 48 h and 1 μCi of [^3H]-Thymidine per well was added to the cultures for the last 12 h. Cellular incorporation of [^3H]-thymidine was measured using a 1450 Microbeta Wallac Trilux Liquid Scintillation Luminescence Counter after harvesting the cells onto nitrocellulose filters.
Individual Inhibition Indices (1.1.) were calculated by dividing the average counts per minute (cpm) value of each triplicate stimulated with ConA and rabeximod with the average cpm value of the triplicate stimulated with ConA only. The inhibition of proliferation induced by rabeximod addition was expressed as % of the positive control (ConA only), i.e. by multiplying the inhibition indices with 100.

[5] = cited from earlier work
murine arthritis model = murine arthritis model in mice; cited from earlier work
[6] = test system: collagen-induced arthritis model; conditions: dark agouti rats, daily subcutaneous administration from the day of immunization; cited from earlier work

Cc1cc2nc3c4cc(Cl)ccc4n(CC(=O)NCCN(C)C)c3nc2cc1C [Rabeximod, 9-Chloro-2,3-dimethyl-6-(N,N-dimethylaminoethylamino-2-oxoethyl)-6H-indolo-[2,3-b]quinoxaline]
change in IL-6 median value from baseline (IL-6; 6.25 mg daily, Week 12): −185.0 IU/L | change in IL-6 median value from baseline (IL-6; 6.25 mg daily, Week 16): −804 IU/L | change in IL-6 median value from baseline (IL-6; 15 mg daily, Week 12): −1679.0 IU/L | change in IL-6 median value from baseline (IL-6; 15 mg daily, Week 16): −1879 IU/L | change in IL-6 median value from baseline (IL-6; 37.5 mg daily, Week 12): 136.0 IU/L | change in IL-6 median value from baseline (IL-6; 37.5 mg daily, Week 16): −1124 IU/L | LPS-stimulated production of IL-6 ([1]; 1.25 μg/ml): significantly reduced | LPS-stimulated production of MIP-1α ([1]; 1.25 μg/ml): significantly reduced | LPS-stimulated production of MIP-1β ([1]; 1.25 μg/ml): significantly reduced | LPS-stimulated production of TNFα ([1]; 1.25 μg/ml): significantly reduced | LPS-stimulated production of RANTES ([1]; 12.5 μg/ml): all but RANTES were reduced | LPS-stimulated production of pro-inflammatory cytokines and chemokines other than RANTES ([1]; 12.5 μg/ml): reduced | TNF-α production from TLR2 stimulated macrophages [2]: decreases | inhibition of MLR activity ([3]; 10^−5 M, all responder:stimulator ratios): strong inhibitory effect | inhibition of MLR activity ([3]; 10^−8 M): the inhibition decreased to a lesser extent | inhibition of MLR activity ([3]; lower doses (10^−7, 10^−8 M)): less effective | inhibition of MLR activity ([3]; two highest concentrations (10^−5, 10^−6 M), all tested ratios): highly inhibitory | arthritis severity ([4]; TLR4 deficient mice): reduces | activation of macrophages in animal models of arthritis ([4]; downstream mechanism, likely TLR2 signalling pathway): inhibits | arthritis severity ([4]; wild type mice): reduces | inhibition of T cell proliferation (T cell proliferation; 300 ng/ml): Approximately 50% | inhibition of T cell proliferation (T cell proliferation; 500 ng/ml): approximately 80% | inhibition at 0.3 µg/mL (T cell proliferation; Rattus norvegicus, T-cell, 300 ng/ml): ≥ 50% | inhibition at 0.5 µg/mL (T cell proliferation; Rattus norvegicus, T-cell, 500 ng/ml): ≥ 80% | fraction in plasma bound to protein [5]: approximately 99% | arthritogenic scoring (murine arthritis model): statistically significant durable reductions | paw swelling (murine arthritis model): statistically significant durable reductions | paw thickness (murine arthritis model): statistically significant durable reductions | arthritis severity [6]: suppressed | onset of clinical arthritis [6]: significantly delayed
